Earlier results in article PMC10401651, “Characterization of Uranyl (UO2^2+) Ion Binding to Amyloid Beta (Aβ) Peptides: Effects on Aβ Structure and Aggregation” (ACS Chemical Neuroscience, 2023).

Target: T1, Aβ42 oligomers (Homo sapiens, UniProt P05067)
T1 construct: Synthetic lyophilized wt Aβ (1–42) peptides, abbreviated as Aβ42; purchased JPT Peptide Technologies (Germany); host or cells: synthetic peptide
Design: method as in PMID 36849796
Conditions: 0.05% SDS; cited from earlier work

T1 sequence (P05067 672-713 limits assumed): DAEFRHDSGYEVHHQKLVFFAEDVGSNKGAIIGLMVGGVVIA

[Ni+2] [Ni(II) ions]
concentration required for full disruption of homogeneous AβO0.05%SDS oligomers: 500 mM
